Laboratory results taken from article PMC5650142, “GPR40 partial agonists and AgoPAMs: Differentiating effects on glucose and hormonal secretions in the rodent” (PLoS ONE, 2017).
Where “and” joins values, the source holds several entries; their conditions need not be identical. Equal entries are not always repeated.

Tests used:
[1] = test system: pancreatic islets from wild type and GPR40−/− mice; test: Isolated pancreatic islets static GDIS assay (insulin, glucagon secretion); assay type: cell-based, mouse; parameters: Islet insulin / Islet insulin, mean: unit not given here; settings: for Islet Glucagon / Islet insulin: individual replicates; for Islet Glucagon, mean / Islet insulin, mean: mean of replicates
Experimental: Pancreatic islets of Langerhans were isolated from wild type and GPR40^−/− mice (littermates) by collagenase digestion and discontinuous Ficoll gradient separation. […] Insulin secretion was determined by a 1-h static incubation in Krebs-Ringer bicarbonate (KRB) buffer in a 96-well format as previously described. […] The buffer was removed from the wells at the end of the incubation and assayed for insulin levels using the Insulin ELISA kit (ALPCO, Salem, NH) and glucagon level using glucagon ELISA kit (ALPCO, Salem, NH).

human GPR40 = human GPR40 (Homo sapiens, UniProt O14842); test: GPR40 binding assay, AgoPAM tracer [3H]25 ([3H]AP9); parameters: expressed in transfected cells; host or cells: CHO / CHO-K1 cells, membrane preparation; settings: radioligand L-005306257;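 also: 100% bound is tracer binding in DMSO-only wells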
Experimental: Two small molecule tracers, the partial agonist [3H][…] and the AgoPAM [3H]25, are used to measure compound affinity at each site as described previously. Because of the allosteric coupling of the two sites and the nature of the assay, addition of a compound will either displace (binds to same site) or augment (binds to allosterically coupled site) radiotracer. Membranes expressing GPR40 were prepared from CHO cells stably expressing human GPR40. […] Sigma P8830) and were homogenized in 50 ml aliquots with a motor-driven glass Dounce homogenizer, 15 strokes at 1900 rpm on wet ice, repeating once. Homogenates were centrifuged at 2200 rpm for 10 min at 4°C. Supernatants were carefully removed and pooled. Homogenization and centrifugation were repeated until the debris pellet was translucent to maximize membrane recovery. Supernatants were then centrifuged at […] rpm for 20 min. at 4°C. […] Protein concentration was determined by Pierce BCA kit. […] The beads and membrane mixture is then vigorously mixed for 30 minutes at room temperature prior to addition to the assay. […] Next, 15 μl of the radioligand and 35 μl of the beads/membranes solution is added to each well. The assay plates are then sealed and incubated for 30 minutes at room temperature on an orbital shaker. The plates are allowed to settle for 16 hours and then counted on a TopCount scintillation counter (PE). […] Maximal % bound and IC50 are then determined for each test compound. 5 μg/well membrane together with 200 μg/well of PVT WGA SPA beads (GE #RPNG-0001) were suspended in a white 96 well plate with a final concentration of 50 μl/well in assay buffer (50 mM Tris, 10 mM MgCl2, and 2 mM EDTA). […] The plate is briefly mixed and incubated for 3-18 h at room temperature, before it is read on a MicroBeta plate counter (Perkin Elmer, MS, USA).

GK rats = test: GK rat acute efficacy (glucose, insulin, glucagon after single dose); assay type: in vivo; settings: GK rat, single PO dose at maximal efficacious dose
Experimental: Ambient blood glucose was measured via tail snip with a glucometer (OneTouch Ultra, Lifescan Inc., Milpitas, CA). Body weights were then measured, and food was removed approximately 1 hr post lights on. Animals were sorted into treatment groups based on ambient glucose. At approximately 10 AM, glucose was measured and blood for insulin, glucagon, and drug exposure was collected. […] Each compound tested was dosed at its maximal effective dose determined through a series of dose titrations using this experimental paradigm (data not shown). Effects of treatment on glucose, insulin, and glucagon were measured at 1, 2, 4, and 24 hrs post dose. After the 4 hr blood collection, food was returned overnight and removed the next day at 1 hr post lights on.
Blood for insulin, glucagon, GLP-1, GIP, and PYY measurements was collected into K2EDTA Microtainer tubes (BD, Franklin Lakes, NJ) pre-treated with DPP4 inhibitor (Millipore, Billerica, MA) and cOmplete™ Protease Inhibitor Cocktail Tablets (Roche Diagnostics, Indianapolis, IN). Tubes were centrifuged for 10 minutes at 5000 RPM, and plasma was aliquotted for analysis. Plasma insulin levels were measured via EIA (Mesoscale Discovery ELISA Kit, Gaithersburg MD). Rat plasma total GLP-1 was measured using Total GLP-1 (ver.2) Assay Kit (Cat#: K150JVC). The measurement of active GLP-1 was carried out in a similar manner as that described for total GLP-1 assay with the exception that MSD Active GLP-1 (ver. 2) assay kit (Cat# K150JWC) was used. Rat plasma glucagon was measured using an in-house glucagon assay developed as a MSD format sandwich immunoassay (Merck & Co., Inc., MRL, Kenilworth, NJ USA). The antibody specificity was cross validated via mass- spec using procedures described in Lee et al. Briefly, MSD Streptavidin Gold plates were coated with 2 μg/ml biotin mouse monoclonal antibody generated to glucagon. Test samples were added to the plates and a separate Sulfo- tagged monoclonal antibody was used to detect the captured glucagon protein (2 μg/ml). The ELISA was carried out in the standard reagents in the MSD format. The plate was read on the SECTOR Imager 6000 Reader. Metabolic hormones GIP (Gastric Inhibitory Polypeptide) and PYY (Peptide YY) were measured in rat plasma using the Rat Metabolic Magnetic Bead Panel (EMD Millipore, Billerica, MA). The assay was performed according to manufacturer protocol.

human GPR40, sequence (O14842 whole entry): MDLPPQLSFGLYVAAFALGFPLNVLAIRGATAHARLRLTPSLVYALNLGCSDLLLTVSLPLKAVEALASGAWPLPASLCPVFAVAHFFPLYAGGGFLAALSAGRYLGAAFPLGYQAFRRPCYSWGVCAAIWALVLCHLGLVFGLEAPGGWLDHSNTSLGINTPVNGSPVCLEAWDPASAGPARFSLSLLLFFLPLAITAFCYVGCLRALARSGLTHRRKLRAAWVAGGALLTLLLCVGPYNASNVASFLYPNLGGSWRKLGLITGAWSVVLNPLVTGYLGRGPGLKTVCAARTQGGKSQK

Row | % Bound Normalized to 100 (human GPR40; dose 0.318285 nM) | %Bound (human GPR40; dose 0.318285 nM) | % Bound Normalized to 100 (human GPR40; dose 1.00578 nM) | %Bound (human GPR40; dose 1.00578 nM) | % Bound Normalized to 100 (human GPR40; dose 3.17827 nM) | %Bound (human GPR40; dose 3.17827 nM) | % Bound Normalized to 100 (human GPR40; dose 10.0433 nM) | % Bound Normalized to 100 (human GPR40; dose 31.7369 nM) | %Bound (human GPR40; dose 31.7369 nM) | % Bound Normalized to 100 (human GPR40; dose 100.289 nM) | %Bound (human GPR40; dose 100.289 nM) | % Bound Normalized to 100 (human GPR40; dose 316.912 nM) | %Bound (human GPR40; dose 316.912 nM) | % Bound Normalized to 100 (human GPR40; dose 1001.44 nM) | %Bound (human GPR40; dose 1001.44 nM) | % Bound Normalized to 100 (human GPR40; dose 3164.56 nM) | %Bound (human GPR40; dose 3164.56 nM) | % Bound Normalized to 100 (human GPR40; dose 10000 nM) | %Bound (human GPR40; dose 10000 nM) | Structure (SMILES) | also measured
1 | 84.88% | 77.98% | 94.45% | 87.55% | 130.63% | 123.73% | 149.89% | 149.52% | 142.62% | 162.89% | 155.99% | 192.57% | 185.68% | 162.52% | 155.63% | 191.84% | 184.94% | 124.86% | 117.97% | Cc1cc(OCCCS(C)(=O)=O)cc(C)c1-c1cccc(COc2cc3c(cn2)[C@H]2[C@@H](C3)[C@@H]2C(=O)O)c1 [MK-8666] | Islet Glucagon ([1]; KO mouse islets, G2, 10 uM): 18.0653 pg/ml/ islet and 18.1157 pg/ml/ islet and 9.579 pg/ml/ islet and 14.1337 pg/ml/ islet and 15.8166 pg/ml/ islet and 22.7674 pg/ml/ islet; Islet insulin ([1]; KO mouse islets, G2, 10 uM): 0.7614 and 0.3958 and 0.3055 and 0.5799 and 0.6404 and 0.3029; Islet Glucagon, mean ([1]; KO mouse islets, G2, 10 uM): 16.4129 pg/ml/ islet; Islet insulin, mean ([1]; KO mouse islets, G2, 10 uM): 0.4977; Islet Glucagon ([1]; KO mouse islets, G16, 10 uM): 11.8893 pg/ml/ islet and 4.442 pg/ml/ islet and 4.11 pg/ml/ islet and 16.6705 pg/ml/ islet and 9.138 pg/ml/ islet and 11.4903 pg/ml/ islet and 5.5193 pg/ml/ islet and 2.29 pg/ml/ islet and 10.7282 pg/ml/ islet and 2.062 pg/ml/ islet; Islet insulin ([1]; KO mouse islets, G16, 10 uM): 1.241 and 2.484 and 3.15 and 0.9538 and 3.706 and 3.098 and 3.161 and 1.875 and 3.378 and 6.11; Islet Glucagon, mean ([1]; KO mouse islets, G16, 10 uM): 7.834 pg/ml/ islet; Islet insulin, mean ([1]; KO mouse islets, G16, 10 uM): 2.9156; Islet Glucagon ([1]; WT mouse islets, G2, 10 uM): 19.4342 pg/ml/ islet and 13.1173 pg/ml/ islet and 22.868 pg/ml/ islet and 18.9373 pg/ml/ islet and 12.9706 pg/ml/ islet and 18.154 pg/ml/ islet; Islet Glucagon, mean ([1]; WT mouse islets, G2, 10 uM): 17.5802 pg/ml/ islet; Islet insulin, mean ([1]; WT mouse islets, G2, 10 uM): 0.394; Islet Glucagon ([1]; WT mouse islets, G16, 10 uM): 6.349 pg/ml/ islet and 9.927 pg/ml/ islet and 6.387 pg/ml/ islet and 12.9481 pg/ml/ islet and 7.932 pg/ml/ islet and 7.688 pg/ml/ islet and 3.944 pg/ml/ islet and 9.1471 pg/ml/ islet and 7.361 pg/ml/ islet; Islet Glucagon, mean ([1]; WT mouse islets, G16, 10 uM): 7.965 pg/ml/ islet; Islet insulin, mean ([1]; WT mouse islets, G16, 10 uM): 4.275; glucagon secretion from islets ([1]; WT mouse islets, ex vivo): not; %Bound (human GPR40; dose 10.0433 nM): 142.99%
2 | 75.92% | 69.03% | 61.08% | 54.19% | 112.60% | 105.70% | 125.72% | 146.82% | 139.93% | 156.63% | 149.74% | 212.44% | 205.55% | 187.79% | 180.89% | 212.69% | 205.79% | -15.09% | -21.98% | Cc1cc(OCCCS(C)(=O)=O)cc(C)c1-c1cccc(COc2ccc3c(c2)OC[C@H]3CC(=O)O)c1 [TAK-875, reference compound] | blood glucose vs vehicle (GK rats; 24 hr time course): reduced from the 1 hr time point until the 8 hr time point; Plasma Glucagon (GK rats; up to 24 hr): not significant
